Data on 20 compounds can be found in ChEMBL document CHEMBL5726187, “Pyrimido-pyridazinone compounds and methods of use thereof” (2019).

Test [1] deals with Tyrosine-protein kinase SYK (Homo sapiens, UniProt P43405). Kind of test: Inhibition of Enzymatic Syk Kinase Activity: 2.5 μL of 10% DMSO or compound in 10% DMSO was added to the wells in a 96 well V-bottom plate. Optimized concentration of in-house Syk enzyme (different batches of Syk (356-635) kinase domain) were used at optimized concentrations) ranging from 0.035 ng to 7.5 ng/reaction diluted in assay buffer was added to a total volume of 12.5 μL). Compound and protein were incubated for 30 minutes at room temperature on a plate shaker. Ten μL of a substrate mix containing 100 μM ATP (0.25 μL), γ-P32-ATP (0.1 μL; 10 μCi/μL), pG4T (0.25 μL; 10 mg/mL) and 1× assay buffer (9.4 μL) was added to all the wells. Samples were incubated at 30° C. for 10 minutes after mixing. The reaction was stopped by the addition of 8N HCl (13 μL) containing 100 mM ATP. Thirty μL of sample was transferred to the center of a 2×2 cm2 Whatman P81 chromatography paper. After allowing the sample to dry for one minute, the assay squares were washed 3 times for 5 minutes each in ortho-phosphoric acid (0.5%) and once in acetone. Assay squares were dried for 15 minutes in a 30° C. oven and transferred to 96 well optiplate. Microscint-O reagent (100 μL, Perkin Elmer) was added to each well, the plate was sealed with Topseal-A microplates and incubated for 10 minutes at room temperature at very low speed on rocker and the plate was read in the Topcount NXL instrument.

Test [2] addresses Tyrosine-protein kinase JAK2 (Homo sapiens, UniProt O60674). Kind of test: Inhibition of Enzymatic JAK2 Kinase Activity: Two μL of 10% DMSO in blank, substrate control and positive control wells and 2 μL of test compound in test wells was added. Thirteen μL of assay buffer in blank and substrate control wells and 13 μL of Enzyme buffer mix in positive and test wells was added. The reaction mixture was incubated for 30 minutes at RT on a plate shaker. Ultra Light-pGT substrate (5 μL) [poly Glu-Tyr (4:1) labeled with U Light TM dye, a tyrosine kinase substrate] and ATP mix was added to all wells. The reaction plate was incubated for 60 minutes at RT on a plate shaker. The reaction was stopped by adding 40 mM EDTA (10 μL) in buffer. Ten μL of antibody was added to all the wells.

One may read the IC50 as the midpoint of a concentration-inhibition curve.

Tyrosine-protein kinase JAK2, sequence (O60674 whole entry): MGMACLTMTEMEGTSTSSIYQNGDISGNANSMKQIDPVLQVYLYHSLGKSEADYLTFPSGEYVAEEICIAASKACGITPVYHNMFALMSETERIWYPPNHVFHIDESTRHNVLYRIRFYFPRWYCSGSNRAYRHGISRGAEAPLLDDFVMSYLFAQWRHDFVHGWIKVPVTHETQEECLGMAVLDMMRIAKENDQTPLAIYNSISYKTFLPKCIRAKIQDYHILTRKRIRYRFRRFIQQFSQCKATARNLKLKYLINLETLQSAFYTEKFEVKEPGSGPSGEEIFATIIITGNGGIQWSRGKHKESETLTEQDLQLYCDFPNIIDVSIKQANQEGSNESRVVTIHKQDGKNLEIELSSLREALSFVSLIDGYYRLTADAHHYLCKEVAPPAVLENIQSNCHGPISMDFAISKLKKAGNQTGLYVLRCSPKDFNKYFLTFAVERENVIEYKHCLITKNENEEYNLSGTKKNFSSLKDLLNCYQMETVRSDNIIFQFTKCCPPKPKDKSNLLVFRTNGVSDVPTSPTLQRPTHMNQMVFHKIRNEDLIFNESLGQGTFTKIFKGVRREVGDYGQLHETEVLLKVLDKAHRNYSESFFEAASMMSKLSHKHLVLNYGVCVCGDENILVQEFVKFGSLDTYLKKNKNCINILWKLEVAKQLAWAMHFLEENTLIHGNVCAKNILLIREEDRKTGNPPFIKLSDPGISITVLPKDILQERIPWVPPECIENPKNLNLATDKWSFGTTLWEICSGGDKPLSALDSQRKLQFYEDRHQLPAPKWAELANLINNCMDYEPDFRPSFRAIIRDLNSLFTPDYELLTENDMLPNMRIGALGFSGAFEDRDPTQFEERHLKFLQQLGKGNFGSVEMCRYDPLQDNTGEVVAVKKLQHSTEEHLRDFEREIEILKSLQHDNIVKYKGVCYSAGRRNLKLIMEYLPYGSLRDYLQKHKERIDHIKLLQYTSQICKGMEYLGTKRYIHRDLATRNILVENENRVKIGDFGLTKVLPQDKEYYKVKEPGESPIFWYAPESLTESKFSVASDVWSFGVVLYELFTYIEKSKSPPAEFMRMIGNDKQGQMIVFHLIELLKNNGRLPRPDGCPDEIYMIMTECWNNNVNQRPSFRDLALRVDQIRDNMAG

For the compound `O=C(O)C1CC12CCC(c1ccc(Nc3nc(N4CCCCC4)nc4cn[nH]c(=O)c34)cc1)CC2` (stereo unspecified), the IC50 in test [1] and in test [2] was below 0.05 µM throughout. Consider `CC(C)(C(N)=O)N1CCN(c2ccc(Nc3nc(N4CCCCCC4)nc4cn[nH]c(=O)c34)cc2)CC1`, for which the results for the IC50 in test [1] and in test [2] were below 0.05 µM and below 0.01 µM, respectively.

For the compound `O=C1CC2(CCN(c3nc(Nc4ccc(CN5CCNCC5)cc4)c4c(=O)[nH]ncc4n3)CC2)CC(=O)N1`, the IC50 in test [1] is above 0.1 µM. `COc1ccc(-c2nc(Nc3ccc(N4CCC5(CC4)CC5C(=O)O)cc3)c3c(=O)[nH]ncc3n2)cc1` (stereo unspecified): the IC50 in test [1] and in test [2] was below 0.1 µM in each case. `CC(C)(CO)Oc1ccc(Nc2nc(N3CCC(CC#N)CC3)nc3cn[nH]c(=O)c23)cc1`: the half-maximal inhibitory concentration (IC50) in test [1] and in test [2] was below 0.05 µM in each case. With `CC1CC(C)CN(c2nc(Nc3ccc(N4CCC(CC(=O)O)CC4)cc3)c3c(=O)[nH]ncc3n2)C1` (stereo unspecified), the IC50 in test [1] was below 0.05 µM; in test [2] it was below 0.01 µM. On the same counts, the results for `O=c1[nH]ncc2nc(N3CCCCCC3)nc(Nc3ccc(OCCN4CCCNCC4)cc3)c12` are below 0.05 µM and below 0.01 µM.

`O=c1[nH]ncc2nc(N3CCCCC3)nc(Nc3ccc(OCCN4CCCNCC4)cc3)c12`: the concentration for half-maximal inhibition (IC50) in test [1] and in test [2] was below 0.05 µM in each case. For `O=C(O)C1CC12CCN(c1ccc(Nc3nc(-c4ccc(F)cc4)nc4cn[nH]c(=O)c34)cc1)CC2` (stereo unspecified), the concentration for half-maximal inhibition (IC50) in test [1] was below 0.1 µM; in test [2], below 0.05 µM. On the same counts, the results for `CC(C)(C#N)N1CCN(CCOc2ccc(Nc3nc(N4CCCCCC4)nc4cn[nH]c(=O)c34)cc2)CC1` are below 0.05 µM and below 0.05 µM. On the same counts, the results for `CN(c1nc(Nc2ccc(N3CCC4(CC3)CC4C(=O)O)cc2)c2c(=O)[nH]ncc2n1)C1CCCCC1` (stereo unspecified) are below 0.05 µM and below 0.01 µM. Regarding `N#CCC1CCN(c2nc(Nc3ccc(N4CCCC(O)C4)nc3)c3c(=O)[nH]ncc3n2)CC1` (stereo unspecified), the IC50 in test [1] and in test [2] was below 0.05 µM in each case. Compound `COc1cc(Nc2nc(N3CCCCCC3)nc3cn[nH]c(=O)c23)cc(OC)c1` came in with an IC50 in test [1] above 0.1 µM. Take `O=C(O)C1CC12CCC(c1ccc(Nc3nc(NC4CCCCC4)nc4cn[nH]c(=O)c34)cc1)CC2` (stereo unspecified): the IC50 in test [1] and in test [2] was below 0.05 µM each time.

For the compound `CC(C)(O)C(=O)N1CCN(c2ccc(Nc3nc(N4CCC(CC#N)CC4)nc4cn[nH]c(=O)c34)cn2)CC1`, the half-inhibitory concentration (IC50) in test [1] and in test [2] was below 0.05 µM each time. As for `O=c1[nH]ncc2nc(N3CCCCCC3)nc(Nc3ccc(OCCN4CCNCC4)cc3)c12`, the IC50 in test [1] is below 0.05 µM. As to `N#CCC1CCN(c2nc(Nc3ccc(F)cc3)c3c(=O)[nH]ncc3n2)CC1`, the IC50 in test [1] is above 0.1 µM.

Regarding `O=C(O)CN1CCN(c2ccc(Nc3nc(N4CCCCCC4)nc4cn[nH]c(=O)c34)cc2)CC1`, the concentration for half-maximal inhibition (IC50) in test [1] and in test [2] was below 0.01 µM each time.

Regarding `CC(C)(Oc1ccc(Nc2nc(N3CCCCCC3)nc3cn[nH]c(=O)c23)cc1)C(=O)O`, the figures for the IC50 in test [1] and in test [2] were below 0.05 µM and below 0.01 µM, respectively. On the same counts, the results for `N#CCC1CCN(c2nc(Nc3ccc(N4CCC(F)(F)CC4)cc3)c3c(=O)[nH]ncc3n2)CC1` are below 0.05 µM and below 0.01 µM.
